The values below come from patent US10077261B2, “Imidazolin-5-one derivative useful as FASN inhibitors for the treatment of cancer” (Janssen Pharmaceutica NV, priority 2012, dated 2018).

For assay [1], the system named is A2780 ovarian cells. The assay is described as follows: A2780 ovarian cell proliferation assay in lipid reduced medium, without palmitate (MTT). It counts as cell-based. As to conditions: Homo sapiens, A2780, 96 h; read-out: pIC50 A2780 Ovarian Cell, Without Palmitate (converted).
Assay [2] relates to A2780 ovarian cells. Put plainly: A2780 ovarian cell proliferation assay in lipid reduced medium, with palmitate (MTT). The class given is cell-based. As to conditions: Homo sapiens, A2780, 96 h; read-out: pIC50 A2780 Ovarian Cell, With Palmitate (converted). In short, it runs like this:
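Seeded cells were switched next day to lipid-reduced serum, exposed to compound and 25 μM palmitate complexed with fatty-acid-free BSA, and incubated 96 h. Proliferation was then determined by MTT absorbance at 544 nm, with a best-fit curve of signal against concentration.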

In assay [3] the target is T1, hFASN enzyme (full length) (Homo sapiens, UniProt P49327).
T1 construct: 10 μL hFASN enzyme (full length, 300 ng, purified in house); made in house
T1 sequence (P49327 whole entry): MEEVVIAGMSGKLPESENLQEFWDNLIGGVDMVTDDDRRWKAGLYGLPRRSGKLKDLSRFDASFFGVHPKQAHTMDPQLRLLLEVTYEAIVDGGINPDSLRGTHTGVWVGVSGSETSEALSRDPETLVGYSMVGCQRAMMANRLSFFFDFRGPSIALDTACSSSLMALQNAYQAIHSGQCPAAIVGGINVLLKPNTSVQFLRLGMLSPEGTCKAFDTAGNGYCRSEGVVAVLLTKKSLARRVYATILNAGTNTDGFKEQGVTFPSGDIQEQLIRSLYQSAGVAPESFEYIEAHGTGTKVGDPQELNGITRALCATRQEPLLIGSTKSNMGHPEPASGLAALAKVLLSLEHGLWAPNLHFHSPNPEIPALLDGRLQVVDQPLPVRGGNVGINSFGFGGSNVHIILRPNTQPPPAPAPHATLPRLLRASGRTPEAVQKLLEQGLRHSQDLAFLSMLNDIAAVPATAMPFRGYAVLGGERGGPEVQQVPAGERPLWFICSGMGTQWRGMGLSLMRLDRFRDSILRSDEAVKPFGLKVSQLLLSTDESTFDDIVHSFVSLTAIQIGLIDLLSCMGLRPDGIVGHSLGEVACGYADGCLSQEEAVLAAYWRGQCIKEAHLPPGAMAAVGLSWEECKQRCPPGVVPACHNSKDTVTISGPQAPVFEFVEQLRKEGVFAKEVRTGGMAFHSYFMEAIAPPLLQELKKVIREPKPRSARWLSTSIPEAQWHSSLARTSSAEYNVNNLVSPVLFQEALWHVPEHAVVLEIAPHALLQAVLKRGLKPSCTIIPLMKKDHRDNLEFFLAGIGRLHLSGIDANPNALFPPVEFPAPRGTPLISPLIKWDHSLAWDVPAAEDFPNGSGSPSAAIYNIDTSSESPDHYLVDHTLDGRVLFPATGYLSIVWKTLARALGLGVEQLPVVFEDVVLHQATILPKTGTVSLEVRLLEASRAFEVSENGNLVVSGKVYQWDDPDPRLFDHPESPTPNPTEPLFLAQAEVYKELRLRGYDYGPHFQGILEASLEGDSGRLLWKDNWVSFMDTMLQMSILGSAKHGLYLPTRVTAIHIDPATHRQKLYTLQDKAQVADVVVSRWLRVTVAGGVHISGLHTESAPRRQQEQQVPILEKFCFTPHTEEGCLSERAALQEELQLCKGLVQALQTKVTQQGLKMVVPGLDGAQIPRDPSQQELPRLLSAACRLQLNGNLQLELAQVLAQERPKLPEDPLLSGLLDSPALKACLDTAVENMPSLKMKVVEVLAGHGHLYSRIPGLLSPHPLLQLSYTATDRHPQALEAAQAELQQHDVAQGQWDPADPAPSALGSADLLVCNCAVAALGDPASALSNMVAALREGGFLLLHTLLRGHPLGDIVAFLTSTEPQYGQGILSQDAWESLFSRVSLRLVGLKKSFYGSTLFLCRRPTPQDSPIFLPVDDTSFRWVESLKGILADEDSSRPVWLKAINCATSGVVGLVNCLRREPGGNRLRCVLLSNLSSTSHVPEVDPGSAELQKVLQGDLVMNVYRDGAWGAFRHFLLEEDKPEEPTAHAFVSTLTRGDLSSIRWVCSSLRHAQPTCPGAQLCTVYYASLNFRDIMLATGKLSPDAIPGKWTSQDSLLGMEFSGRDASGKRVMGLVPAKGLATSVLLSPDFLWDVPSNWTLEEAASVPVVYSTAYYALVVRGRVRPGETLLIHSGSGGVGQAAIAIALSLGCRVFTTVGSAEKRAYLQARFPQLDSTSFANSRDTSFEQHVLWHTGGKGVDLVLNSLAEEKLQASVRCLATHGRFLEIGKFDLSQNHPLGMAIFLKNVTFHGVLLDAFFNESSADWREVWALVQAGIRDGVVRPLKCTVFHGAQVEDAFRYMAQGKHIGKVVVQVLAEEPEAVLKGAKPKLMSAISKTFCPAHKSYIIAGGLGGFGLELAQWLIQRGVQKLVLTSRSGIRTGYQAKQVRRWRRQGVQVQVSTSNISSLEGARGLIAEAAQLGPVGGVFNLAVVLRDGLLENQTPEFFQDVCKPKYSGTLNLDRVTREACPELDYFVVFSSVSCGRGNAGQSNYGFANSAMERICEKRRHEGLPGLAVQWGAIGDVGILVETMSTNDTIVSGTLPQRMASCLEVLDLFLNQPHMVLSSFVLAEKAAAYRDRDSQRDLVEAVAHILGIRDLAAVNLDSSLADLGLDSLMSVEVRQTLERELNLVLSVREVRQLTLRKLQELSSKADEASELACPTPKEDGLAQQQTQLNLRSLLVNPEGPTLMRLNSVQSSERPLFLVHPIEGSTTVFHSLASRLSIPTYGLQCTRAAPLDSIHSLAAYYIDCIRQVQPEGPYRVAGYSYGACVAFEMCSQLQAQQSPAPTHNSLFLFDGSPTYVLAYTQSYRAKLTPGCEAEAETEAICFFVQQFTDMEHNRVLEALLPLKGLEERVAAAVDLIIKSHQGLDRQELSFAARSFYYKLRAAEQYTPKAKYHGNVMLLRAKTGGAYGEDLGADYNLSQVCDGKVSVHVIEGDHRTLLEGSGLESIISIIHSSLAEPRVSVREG
The assay is described as follows: Fatty Acid Synthase (FASN) inhibition scintillation proximity assay. It counts as biochemical. Particulars: for inhibition at 10 µM: read-out: Human FASN % inhibition @ 10 μM, 10 μM test compound; for IC50: read-out: Human FASN pIC50 (converted). In short, it runs like this:
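Full-length in-house purified enzyme (300 ng) was tested in 100 mM KH2PO4 pH 7.5, 1 mM DTT with ³H-acetyl-CoA and malonyl-CoA as substrates; compounds ranged 0.01–30 μM. Reactions were stopped with streptavidin imaging beads, read by LEADseeker at 610 nm, and fitted to a 4-parameter logistic curve.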

The target in assay [4] is Fatty Acid Synthase Keto-reductase Domain (FASN KR) (Homo sapiens, UniProt P49327). Put plainly: Fatty Acid Synthase keto-reductase domain (FASN KR) inhibition, NADPH oxidation at 340 nm.
Fatty Acid Synthase Keto-reductase Domain (FASN KR), sequence (P49327 whole entry, the tested form may be a part): as the sequence (P49327 whole entry) above
Method: After 20 minutes incubation at room temperature the plate was measured again (T2).
The decrease in absorbance was calculated as (Absorbance before incubation T1)−(Absorbance following incubation T2).
A plot of Controlmin versus test compound concentration was fitted to a 4-parameter logistic curve using a non-linear least squares regression method.

`O=C(C1CC1)N1CC(CN2C(=O)C3(CCCC3)N=C2c2ccc(-c3ccc4cnccc4c3)cc2)C1` [compound 79, 3-{[1-(Cyclopropylcarbonyl)azetidin-3-yl]methyl}-2-(4-isoquinolin-6-ylphenyl)-1,3-diazaspiro[4.4]non-1-en-4-one]: the IC50 in the assay on A2780 ovarian cells [1] was 145 nM; in the assay on A2780 ovarian cells [2], over 10000 nM; in assay [3], 61.7 nM; in assay [4], 324 nM. Besides, the inhibition at 10 µM in assay [3] is 108%.
Regarding `O=C(C1CC1)N1CC(CN2C(=O)C3(CCCC3)N=C2c2ccc(-c3ccc4occc4c3)cc2)C1` [compound 80, 2-[4-(1-Benzofuran-5-yl)phenyl]-3-{[1-(cyclopropylcarbonyl)azetidin-3-yl]methyl}-1,3-diazaspiro[4.4]non-1-en-4-one], the IC50 in the assay with A2780 ovarian cells [1] is 2290 nM; in the assay with A2780 ovarian cells [2], over 10000 nM; in assay [3] it was 437 nM; in assay [4], 1480 nM. Moreover, the inhibition at 10 µM in assay [3] is 92.1%.
For `CN1CCC2(CC1)N=C(c1ccc(-c3ccc4[nH]ccc4c3)cc1)N(C[C@@H]1CCN(C(=O)C3CC3)C1)C2=O` [compound 81, (R)-2-(4-(1H-Indol-5-yl)phenyl)-3-((1-(cyclopropanecarbonyl)pyrrolidin-3-yl)methyl)-8-methy-1,3,8-triazaspiro[4.5]dec-1-en-4-one], the IC50 in the assay with A2780 ovarian cells [1] is 102 nM; in the assay on A2780 ovarian cells [2], over 6170 nM; in assay [3], 91.2 nM; in assay [4], 186 nM. Besides, the inhibition at 10 µM in assay [3] turned out to be 109%.
On to `O=C(C1CC1)N1CC[C@@H](CN2C(=O)C3(CCCC3)N=C2c2ccc(-c3ccc(Cl)cc3)cc2)C1` [compound 82], for which the IC50 is 3720 nM in the assay on A2780 ovarian cells [1], over 10000 nM in the assay with A2780 ovarian cells [2], 214 nM in assay [3] and 1200 nM in assay [4]. Moreover, in assay [3], the inhibition at 10 µM stood at 105%.
As for `COc1ccc(-c2ccc(C3=NC4(CCCC4)C(=O)N3C[C@@H]3CCN(C(=O)C4CC4)C3)cc2)cc1` [compound 85, 3-{[(3R)-1-(Cyclopropylcarbonyl)pyrrolidin-3-yl]methyl}-2-(4′-methoxybiphenyl-4-yl)-1,3-diazaspiro[4.4]non-1-en-4-one], the IC50 with A2780 ovarian cells [1] is about 2880 nM; with A2780 ovarian cells [2], over 10000 nM; in assay [3], 355 nM; in assay [4], 2040 nM. Also, the inhibition at 10 µM in assay [3] was determined as 97.9%.
With `C=CC(=O)N1CC[C@@H](CN2C(=O)C3(CCN(Cc4ccccc4)CC3)N=C2c2ccc(-c3ccc4occc4c3)cc2)C1` [compound 90, 3-{[(3R)-1-Acryloylpyrrolidin-3-yl]methyl}-2-[4-(1-benzofuran-5-yl)phenyl]-8-benzyl-1,3,8-triazaspiro[4.5]dec-1-en-4-one], the IC50 in the assay with A2780 ovarian cells [1] was 6310 nM; in the assay with A2780 ovarian cells [2], over 10000 nM; in assay [3], 309 nM; in assay [4], 1350 nM. For the same compound, the inhibition at 10 µM in assay [3] turned out to be 101%.
In the same order, the values of `O=C(C1CC1)N1CC[C@@H](CN2C(=O)C3(CCCC3)N=C2c2ccc(-c3cccc4[nH]ncc34)cc2)C1` [compound 92, 3-{[(3R)-1-(Cyclopropylcarbonyl)pyrrolidin-3-yl]methyl}-2-[4-(1H-indazol-4-yl)phenyl]-1,3-diazaspiro[4.4]non-1-en-4-one] are 45.7 nM, over 10000 nM, 51.3 nM, 77.6 nM and 111%.
In the same order, the values of `Cc1cc(-c2ccc(Cl)cc2)ccc1C1=NC2(CCCC2)C(=O)N1C[C@@H]1CCN(C(=O)C2CC2)C1` [compound 93, 2-(4′-Chloro-3-methylbiphenyl-4-yl)-3-{[(3R)-1-(cyclopropylcarbonyl)pyrrolidin-3-yl]methyl}-1,3-diazaspiro[4.4]non-1-en-4-one] are about 2090 nM, over 10000 nM, 75.9 nM, 263 nM and 116%.
For the compound `Cc1cc(-c2ccc(Cl)cc2Cl)ccc1C1=NC2(CCCC2)C(=O)N1C[C@@H]1CCN(C(=O)C2CC2)C1` [compound 94, 3-{[(3R)-1-(Cyclopropylcarbonyl)pyrrolidin-3-yl]methyl}-2-(2′,4′-dichloro-3-methylbiphenyl-4-yl)-1,3-diazaspiro[4.4]non-1-en-4-one], the IC50 in the assay with A2780 ovarian cells [1] is about 2140 nM; with A2780 ovarian cells [2], over 10000 nM; in assay [3], 145 nM; in assay [4], 891 nM. In addition, the inhibition at 10 µM in assay [3] was found to be 111%.
Regarding `Cc1ccc(-c2ccc(C3=NC4(CC4)C(=O)N3C[C@@H]3CCN(C(=O)C4CC4)C3)cc2)cc1` [compound 100, 6-{[(3R)-1-(Cyclopropylcarbonyl)pyrrolidin-3-yl]methyl}-5-(4′-methylbiphenyl-4-yl)-4,6-diazaspiro[2.4]hept-4-en-7-one], the IC50 was 776 nM with A2780 ovarian cells [1], over 10000 nM in the assay on A2780 ovarian cells [2], 74.1 nM in assay [3] and 209 nM in assay [4]. Besides, the inhibition at 10 µM in assay [3] turned out to be 110%.
Consider `Cc1cccc(-c2ccc(C3=NC4(CC4)C(=O)N3C[C@@H]3CCN(C(=O)C4CC4)C3)cc2)c1` [compound 101, 6-{[(3R)-1-(Cyclopropylcarbonyl)pyrrolidin-3-yl]methyl}-5-(3′-methylbiphenyl-4-yl)-4,6-diazaspiro[2.4]hept-4-en-7-one], for which the IC50 is 1700 nM in the assay on A2780 ovarian cells [1], over 10000 nM with A2780 ovarian cells [2], 81.3 nM in assay [3] and 380 nM in assay [4]. Besides, in assay [3], the inhibition at 10 µM was 112%.
In the same order, the values of `O=C(C1CC1)N1CC[C@@H](CN2C(=O)C3(CC3)N=C2c2ccc(-c3cccc(F)c3)cc2)C1` [compound 102, 6-{[(3R)-1-(Cyclopropylcarbonyl)pyrrolidin-3-yl]methyl}-5-(3′-fluorobiphenyl-4-yl)-4,6-diazaspiro[2.4]hept-4-en-7-one] are 2290 nM, over 10000 nM, 209 nM, 1070 nM and 107%.
Regarding `COc1ccc(-c2ccc(C3=NC4(CC4)C(=O)N3C[C@@H]3CCN(C(=O)C4CC4)C3)cc2)cc1` [compound 103, 6-{[(3R)-1-(Cyclopropylcarbonyl)pyrrolidin-3-yl]methyl}-5-(4′-methoxybiphenyl-4-yl)-4,6-diazaspiro[2.4]hept-4-en-7-one], the IC50 was 851 nM with A2780 ovarian cells [1], over 10000 nM in the assay with A2780 ovarian cells [2], 67.6 nM in assay [3] and 316 nM in assay [4]. In assay [3], the inhibition at 10 µM amounted to 109%.
In the same order, the values of `O=C(C1CC1)N1CC[C@@H](CN2C(=O)C3(CC3)N=C2c2ccc(-c3ccc(F)cc3)cc2)C1` [compound 105, 6-{[(3R)-1-(Cyclopropylcarbonyl)pyrrolidin-3-yl]methyl}-5-(4′-fluorobiphenyl-4-yl)-4,6-diazaspiro[2.4]hept-4-en-7-one] are 955 nM, over 10000 nM, 100 nM, 501 nM and 104%.
In the same order, the values of `O=C(C1CC1)N1CC[C@@H](CN2C(=O)C3(CCNCC3)N=C2c2ccc(-c3ccc4cnccc4c3)cc2)C1` [compound 106, 3-{[(3R)-1-(Cyclopropylcarbonyl)pyrrolidin-3-yl]methyl}-2-(4-isoquinolin-6-ylphenyl)-1,3,8-triazaspiro[4.5]dec-1-en-4-one] are 741 nM, over 10000 nM, 112 nM, 603 nM and 110%.
Regarding `COc1cccc(-c2ccc(C3=NC4(CC4)C(=O)N3C[C@@H]3CCN(C(=O)C4CC4)C3)cc2)c1` [compound 113, 6-{[(3R)-1-(Cyclopropylcarbonyl)pyrrolidin-3-yl]methyl}-5-(3′-methoxybiphenyl-4-yl)-4,6-diazaspiro[2.4]hept-4-en-7-one], the IC50 in the assay on A2780 ovarian cells [1] is about 1780 nM; with A2780 ovarian cells [2], over 10000 nM; in assay [3] it was 117 nM; in assay [4], 1070 nM. Also, the inhibition at 10 µM in assay [3] turned out to be 109%.
With `O=C(C1CC1)N1CC[C@@H](CN2C(=O)C3(CC3)N=C2c2ccc(-c3ccc(Cl)cc3)cc2)C1` [compound 114, 5-(4′-Chlorobiphenyl-4-yl)-6-{[(3R)-1-(cyclopropylcarbonyl)pyrrolidin-3-yl]methyl}-4,6-diazaspiro[2.4]hept-4-en-7-one], the IC50 is about 832 nM in the assay on A2780 ovarian cells [1], over 10000 nM in the assay on A2780 ovarian cells [2], 75.9 nM in assay [3] and 234 nM in assay [4]. Further, the inhibition at 10 µM in assay [3] amounted to 107%.
In the same order, the values of `O=C(C1CC1)N1CC[C@@H](CN2C(=O)C3(CC3)N=C2c2ccc(-c3cccc(O)c3)cc2)C1` [compound 115, 6-{[(3R)-1-(Cyclopropylcarbonyl)pyrrolidin-3-yl]methyl}-5-(3′-hydroxybiphenyl-4-yl)-4,6-diazaspiro[2.4]hept-4-en-7-one] are about 61.7 nM, over 10000 nM, 30.2 nM, 123 nM and 113%.

For orientation: inhibition means the change of the read-out against control, counted positive when it falls.
